This is an account of results in patent publication US6448255B1, “Imidazo-isoquinolin-5-one derivatives, pyrimido-isoquinolin-6-one derivatives and imidazo-naphthyridin-5-one derivatives” (Wyeth, priority 2000, dated 2002).

Data set [1] has as its system blood serum HDL cholesterol. The data set can be described thus: determination of HDL cholesterol in serum of cholesterol/cholic acid-fed rats. Format: in vivo, Male Sprague-Dawley rats. The note with it: Dose 100 mg/kg/day mixed in diet, 8 days; rats fed chow with 0.25% cholic acid and 1.0% cholesterol; serum HDL cholesterol by FPLC. As for the experimental part: The ability of the compounds of this invention to increase blood serum HDL levels was established by the following standard experimental procedure for determination of HDL cholesterol:
Male Sprague-Dawley rats weighing 200-225 g were housed two per cage and fed Purina Rodent Chow Special Mix 5001-S supplemented with 0.25% cholic acid and 1.0% cholesterol and water ad libitum for 8 days. Each test substance was administered to a group of six rats fed the same diet with the test diet mixed in as 0.005-0.1% of the total diet. Body weight and food consumption were recorded prior to diet administration and at termination. Typical doses of the test substances were 5-100 mg/kg/day.
At termination, blood was collected from anesthetized rats and the serum was separated by centrifugation. Total serum cholesterol was assayed using the Sigma Diagnostics enzymatic kit for the determination of cholesterol, Procedure No. 352, modified for use with ninety-six well microtiter plates. After reconstitution with water the reagent contains 300 U/I cholesterol oxidase, 100 U/I cholesterol esterase, 1000 U/I horse radish peroxidase, 0.3 mmoles/l 4-aminoantipyrine and 30.0 mmoles/l p-hydroxybenzenesulfonate in a pH 6.5 buffer. In the reaction cholesterol was oxidized to produce hydrogen peroxide which was used to form a quinoneimine dye. The concentration of dye formed was measured spectrophotometrically by absorbency at 490 nm after incubation at 25° C. for 30 minutes. The concentration of cholesterol was determined for each serum sample relative to a commercial standard from Sigma.
HDL cholesterol concentrations in serum were determined by separation of lipoprotein classes by fast protein liquid chromatography (FPLC) by a modification of the method of Kieft et al., J. Lipid Res., 32 (1991) 859-866. 25 ul of serum was injected onto Superose 12 and Superose 6 (Pharmacia), in series, with a column buffer of 0.05 M Tris (2-amino-2-hydroxymethyl-1,3-propanediol) and 0.15 M sodium chloride at a flow rate of 0.5 ml/min. The eluted sample was mixed on line with Boehringer-Mannheim cholesterol reagent pumped at […]. The combined eluents were mixed and incubated on line through a knitted coil (Applied Biosciences) maintained at a temperature of 45 C. The eluent was monitored by measuring absorbence at 490 nm and gave a continuous absorbence signal proportional to the cholesterol concentration. The relative concentration of each lipoprotein class was calculated as the percent of total absorbence. HDL cholesterol concentration, in serum, was calculated as the percent of total cholesterol as determined by FPLC multiplied by the total serum cholesterol concentration.

Structures are written as SMILES.

For the compound `O=C1c2ccccc2C(O)(c2ccc(Cl)cc2)C2=NCCN12` (stereo not drawn) [Example 11, 10-(4-Chlorophenyl)-10-hydroxy-2,10-dihydroimidazo[1,2-b]isoquinolin-5(3H)-one], the melting point (in general, the temperature of the solid-liquid transition) was 235 to 237 °C.

In turn, `CC1(C)CN2C(=O)c3ncccc3C(O)(c3ccc(Cl)cc3)C2=N1` (stereo not drawn) [Example 7, 10-(4-Chlorophenyl)-10-hydroxy-2,2-dimethyl-2,10-dihydroimidazo[2,1-g][1,7]naphthyridin-5(3H)-one] registered a melting point of 257 to 260 °C. Besides, the “HDL Cholesterol Level Increase (%)” value in data set [1] is 49%.

As to `C[C@H]1CN2C(=O)c3ccccc3[C@@](O)(c3ccc(F)cc3)C2=N1` [Example 6, (2S,10S)-10-(4-Fluorophenyl)-10-hydroxy-2-methyl-2,10-dihydrolmidazo[1,2-b]isoquinolin-5(3H)-one], in data set [1], the “HDL Cholesterol Level Increase (%)” value stood at 38%.

For the compound `C[C@@H]1CN2C(=O)c3ccccc3[C@@](O)(c3ccc(F)cc3)C2=N1` [Example 5, (2R, 10S)-10-(4-Fluorophenyl)-10-hydroxy-2-methyl-2,10-dihydroimidazo[1,2-b]isoquinolin-5(3H)-one], the melting point was 229 to 232 °C. In data set [1], the “HDL Cholesterol Level Increase (%)” value was 105%.

Regarding `CC1(C)CN2C(=O)c3ccccc3C(O)(c3ccc(Cl)cc3)C2=N1` (stereo not drawn) [Example 10, 10-(4-Chlorophenyl)-10-hydroxy-2,2-dimethyl-2,10-dihydroimidazo[1,2-b]isoquinolin-5(3H)-one], the melting point fell in the range of 181 to 183 °C.

The compound `O=C1c2ccccc2C(O)(c2ccc(Cl)cc2)C2=NCCCN12` (stereo not drawn) [Example 8, 11-(4-Chlorophenyl)-11-hydroxy-2,3,4,11-tetrahydro-6H-pyrimido[1,2-b]isoquinolin-6-one] returned a melting point of 128 to 130 °C.

Regarding `O=C1c2ccccc2C(O)(c2ccc(F)cc2)C2=NC3CCCCC3N12` (stereo not drawn) [Example 4, 6-(4-Fluorophenyl)-6-hydroxy-1,3,4,4a,6,12a-hexahydrobenzimidazo[1,2-b]isoquinolin-11(2H)-one], the melting point lay within 203 to 205 °C. Further, the “HDL Cholesterol Level Increase (%)” value in data set [1] was 21%.

In turn, `O=C1c2ccccc2C(O)(c2ccccc2)C2=NCCN12` (stereo not drawn) [Example 12, 10-Hydroxy-10-phenyl-2,10-dihydroimidazo[1,2-b]isoquinolin-5(3H)-one] gave a melting point of 263 to 265 °C.

With `O=C1c2ccccc2C(O)(c2ccc(Br)cc2)C2=NCCN12` (stereo not drawn) [Example 13, 10-(4-Bromophenyl)-10-hydroxy-2,10-dihydroimidazo[1,2-b]isoquinolin-5(3H)-one], the melting point lay in the range of 212 to 215 °C.

In turn, `O=C1c2ccccc2C(O)(c2ccc(F)cc2)C2=NCCCN12` (stereo not drawn) [Example 2, 11-(4-Fluorophenyl)-11-hydroxy-2,3,4,11-tetrahydro-6H-pyrimido[1,2-b]isoquinolin-6-one] had a melting point of 126 to 128 °C. Moreover, the “HDL Cholesterol Level Increase (%)” value in data set [1] was determined as 22%.

On to `CC1(C)CN2C(=O)c3ccccc3C(O)(c3ccc(F)cc3)C2=N1` (stereo not drawn) [Example 3, 10-(4-Fluorophenyl)-10-hydroxy-2,2-dimethyl-2,10-dihydroimidazo[1,2-b]isoquinolin-5(3H)-one], for which the melting point was in the range of 168 to 170 °C. For the same compound, the “HDL Cholesterol Level Increase (%)” value in data set [1] stood at 90%.

Turning to `CC1(C)CN2C(=O)c3ccccc3C(O)(c3ccccc3)C2=N1` (stereo not drawn) [Example 1, 10-Hydroxy-2,2-dimethyl-10-phenyl-2,10-dihydroimidazo[1,2-b]isoquinolin-5(3H)-one], the melting point fell in the range of 186 to 188 °C. The “HDL Cholesterol Level Increase (%)” value in data set [1] is 55%.
